According to patent US9028845B2, “Chimeric immunomodulatory compounds and methods of using the same-IV” (Dynavax Technologies Corporation, priority 2001, dated 2015):
“Also recorded” adds a separate entry of the source. Marks after values point to notes of the source that are not given here.

Key:
[1] = system: human PBMCs; test: Human PBMC cytokine response assay (IFN-γ and IFN-α in cell-free medium by ELISA), with or without cPLGA; format: cell-based;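 as to IFN-α (pg/ml) mean: 20 µg/mL compound for 24 hours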;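 as to IFN-γ (pg/ml) mean: 20 µg/mL compound for 24 hours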
[2] = system: PBMCs; test: Human PBMC proliferation assay (3H-thymidine incorporation); format: cell-based; details: Experiment A; for mean cpm: 2 μg/ml
[3] = system: hepatitis B surface antigen (HBsAg); details: in vivo
[4] = system: CD19+ B cells; test: Human B cell proliferation assay (3H-thymidine incorporation); details: 2 μg/ml; for cpm1 / cpm2 / cpm3 / mean cpm / mean of both: B cells
[5] = donor 28066, 20 ug/ml, 24 h, + PLGA = premixed with 100 μg/ml cPLGA
[6] = donor 28067, 20 ug/ml, 24 h, + PLGA = premixed with 100 μg/ml cPLGA
[7] = donor 28068, 20 ug/ml, 24 h, + PLGA = premixed with 100 μg/ml cPLGA
[8] = mean of Donors 1-2, 20 μg/ml, 24 h
[9] = mean of Donors 9-12, 20 μg/ml, 24 h
[10] = mean of donors 110, 112, 119, 120, Table 14
[11] = mean of donors 28065-28068, 20 ug/ml, 24 h, + PLGA = premixed with 100 μg/ml cPLGA
[12] = mean of donors 28185-28188, Table 15

5′-TCGTCGA-3′-HEG-5′-ACGTTCG-3′-HEG-5′-AGATGAT-3′ [Compound C-8]
IFN-α (pg/ml) Donor 1 ([1]; Donor 1, 20 μg/ml, 24 h): 1609 pg/mL | IFN-γ (pg/ml) Donor 1 ([1]; Donor 1, 20 μg/ml, 24 h): 1916 pg/mL | IFN-α (pg/ml) Donor 2 ([1]; Donor 2, 20 μg/ml, 24 h): 44 pg/mL | IFN-γ (pg/ml) Donor 2 ([1]; Donor 2, 20 μg/ml, 24 h): 696 pg/mL | IFN-α Donor 9 ([1]; Donor 9, 20 μg/ml, 24 h): 58 | IFN-γ Donor 9 ([1]; Donor 9, 20 μg/ml, 24 h): 312 | IFN-α Donor 10 ([1]; Donor 10, 20 μg/ml, 24 h): 30 | IFN-γ Donor 10 ([1]; Donor 10, 20 μg/ml, 24 h): 35 | IFN-α Donor 11 ([1]; Donor 11, 20 μg/ml, 24 h): 18 | IFN-γ Donor 11 ([1]; Donor 11, 20 μg/ml, 24 h): 31 | IFN-α Donor 12 ([1]; Donor 12, 20 μg/ml, 24 h): 49 | IFN-γ Donor 12 ([1]; Donor 12, 20 μg/ml, 24 h): 28 | IFN-α ([1]; Table 9, donor 28089): 21 pg/mL | IFN-γ ([1]; Table 9, donor 28089): 62 pg/mL | IFN-α ([1]; Table 9, donor 28090): 124 pg/mL | IFN-γ ([1]; Table 9, donor 28090): 52 pg/mL | IFN-α ([1]; Table 9, donor 28098): 314 pg/mL | IFN-γ ([1]; Table 9, donor 28098): 205 pg/mL | IFN-α ([1]; Table 9, donor 28099): 362 pg/mL | IFN-γ ([1]; Table 9, donor 28099): 116 pg/mL | IFN-α mean ([1]; Table 9, mean of donors): 205 pg/mL | IFN-γ mean ([1]; Table 9, mean of donors): 109 pg/mL | IFN-α ([1]; Table 10, donor 28042): 20 pg/mL | IFN-γ ([1]; Table 10, donor 28042): 468 pg/mL | IFN-α ([1]; Table 10, donor 28043): 51 pg/mL | IFN-γ ([1]; Table 10, donor 28043): 939 pg/mL | IFN-α ([1]; Table 10, donor 28044): 32 pg/mL | IFN-γ ([1]; Table 10, donor 28044): 1000 pg/mL | IFN-α ([1]; Table 10, donor 28045): 5 pg/mL | IFN-γ ([1]; Table 10, donor 28045): 234 pg/mL | IFN-α mean ([1]; Table 10, mean of donors): 27 pg/mL | IFN-γ mean ([1]; Table 10, mean of donors): 660 pg/mL | IFN-α ([1]; Table 11, donor 28042): 78 pg/mL | IFN-γ ([1]; Table 11, donor 28042): 623 pg/mL | IFN-α ([1]; Table 11, donor 28043): 25 pg/mL | IFN-γ ([1]; Table 11, donor 28043): 753 pg/mL | IFN-α ([1]; Table 11, donor 28044): 52 pg/mL | IFN-γ ([1]; Table 11, donor 28044): 646 pg/mL | IFN-α ([1]; Table 11, donor 28045): 256 pg/mL | IFN-γ ([1]; Table 11, donor 28045): 604 pg/mL | IFN-α mean ([1]; Table 11, mean of donors): 103 pg/mL | IFN-γ mean ([1]; Table 11, mean of donors): 656 pg/mL | IFN-α ([1]; Table 13, donor 28156): 102 pg/mL | IFN-γ ([1]; Table 13, donor 28156): 1612 pg/mL | IFN-α ([1]; Table 13, donor 28157): 755 pg/mL | IFN-γ ([1]; Table 13, donor 28157): 742 pg/mL | IFN-α ([1]; Table 13, donor 28158): 61 pg/mL | IFN-γ ([1]; Table 13, donor 28158): 340 pg/mL | IFN-α ([1]; Table 13, donor 28159): 160 pg/mL | IFN-γ ([1]; Table 13, donor 28159): 197 pg/mL | IFN-α mean ([1]; Table 13, mean of donors): 270 pg/mL | IFN-γ mean ([1]; Table 13, mean of donors): 723 pg/mL | IFN-α ([1]; donor 110, Table 14): 196 pg/mL | IFN-γ ([1]; donor 110, Table 14): 1152 pg/mL | IFN-α ([1]; donor 112, Table 14): 30 pg/mL | IFN-γ ([1]; donor 112, Table 14): 540 pg/mL | IFN-α ([1]; donor 119, Table 14): 264 pg/mL | IFN-γ ([1]; donor 119, Table 14): 136 pg/mL | IFN-α ([1]; donor 120, Table 14): 42 pg/mL | IFN-γ ([1]; donor 120, Table 14): 48 pg/mL | IFN-γ (pg/ml) 28065 ([1]; donor 28065 (high background), 20 ug/ml, 24 h, + PLGA = premixed with 100 μg/ml cPLGA, 1000 = outside assay limits): 1000 pg/mL | IFN-α (pg/ml) 28065 ([1]; donor 28065, 20 ug/ml, 24 h, + PLGA = premixed with 100 μg/ml cPLGA): 123 pg/mL | IFN-α (pg/ml) 28066 [1, 5]: 6 pg/mL | IFN-γ (pg/ml) 28066 [1, 5]: 19 pg/mL | IFN-α (pg/ml) 28067 [1, 6]: 96 pg/mL | IFN-γ (pg/ml) 28067 [1, 6]: 56 pg/mL | IFN-α (pg/ml) 28068 [1, 7]: 358 pg/mL | IFN-γ (pg/ml) 28068 [1, 7]: 419 pg/mL | IFN-a ([1]; donor 28185, Table 15): 196 pg/mL | IFN-g ([1]; donor 28185, Table 15): 154 pg/mL | IFN-a ([1]; donor 28186, Table 15): 31 pg/mL | IFN-g ([1]; donor 28186, Table 15): 25 pg/mL | IFN-a ([1]; donor 28187, Table 15): 202 pg/mL | IFN-g ([1]; donor 28187, Table 15): 123 pg/mL | IFN-a ([1]; donor 28188, Table 15): 4 pg/mL | IFN-g ([1]; donor 28188, Table 15): 9 pg/mL | IFN-α (pg/ml) mean [1, 8]: 827 pg/mL | IFN-γ (pg/ml) mean [1, 8]: 1306 pg/mL | IFN-α mean [1, 9]: 39 | IFN-γ mean [1, 9]: 102 | IFN-α (pg/ml) mean [1, 10]: 133 pg/mL | IFN-γ (pg/ml) mean [1, 10]: 469 pg/mL | IFN-α (pg/ml) mean [1, 11]: 146 pg/mL | IFN-γ (pg/ml) mean [1, 11]: 373 pg/mL | IFN-a (pg/ml) mean [1, 12]: 108 pg/mL | IFN-g (pg/ml) mean [1, 12]: 78 pg/mL | IFN-a (pg/ml) ×2 ([1]; mean ×2, Table 15): 217 pg/mL | IFN-g (pg/ml) ×4 ([1]; mean ×4, Table 15): 311 pg/mL | immunomodulatory activity (IFN-γ / IFN-α secretion), in words ([1]; used alone (no cPLGA)): more active than other CG-containing CICs; also recorded: most active CICs | cpm1 ([2]; Donor 146, 2 μg/ml): 47202 cpm | cpm2 ([2]; Donor 146, 2 μg/ml): 40790 cpm | cpm3 ([2]; Donor 146, 2 μg/ml): 44811 cpm | mean cpm ([2]; Donor 146 mean): 44268 cpm | cpm1 ([2]; Donor 147, 2 μg/ml): 38845 cpm | cpm2 ([2]; Donor 147, 2 μg/ml): 39733 cpm | cpm3 ([2]; Donor 147, 2 μg/ml): 27981 cpm | mean cpm ([2]; Donor 147 mean): 35520 cpm | mean of both ([2]; mean of Donors 146 and 147, 2 μg/ml): 39894 cpm | Anti-HBsAg (mIU/ml) post-first, Mean [3]: 22 mIU/ml | Anti-HBsAg (mIU/ml) post-second, Mean [3]: 9294** mIU/ml | B cell proliferation, in words ([4]; 48 h plus 8 h 3H-thymidine pulse): cause B cells to proliferate | cpm1 ([4]; Donor 146, Experiment A): 23815 cpm | cpm2 ([4]; Donor 146, Experiment A): 30066 cpm | cpm3 ([4]; Donor 146, Experiment A): 22969 cpm | mean cpm ([4]; Donor 146 mean, Experiment A): 25617 cpm | cpm1 ([4]; Donor 147, Experiment A): 20914 cpm | cpm2 ([4]; Donor 147, Experiment A): 22370 cpm | cpm3 ([4]; Donor 147, Experiment A): 23659 cpm | mean cpm ([4]; Donor 147 mean, Experiment A): 22314 cpm | cpm1 ([4]; donor 121, Experiment B): 2604 cpm | cpm2 ([4]; donor 121, Experiment B): 12078 cpm | cpm3 ([4]; donor 121, Experiment B): 17696 cpm | mean cpm ([4]; donor 121 mean, Experiment B): 10793 cpm | cpm1 ([4]; donor 194, Experiment B): 9333 cpm | cpm2 ([4]; donor 194, Experiment B): 9391 cpm | cpm3 ([4]; donor 194, Experiment B): 7602 cpm | mean cpm ([4]; donor 194 mean, Experiment B): 8775 cpm | mean of both ([4]; mean of Donors 146 and 147, Experiment A): 23966 cpm | mean of both ([4]; mean of donors 121 and 194, Experiment B): 9784 cpm
